Reference: patent publication US20060234909A1, “Compositions and methods for increasing drug efficiency” (priority 2003, published 2006)
Primed or numbered codes have the meaning given here. * marks the point of attachment. 10Ca = carbamate linkage conjugating the peptide-PEG to paclitaxel at C10; 10Ca‑PXL = paclitaxel conjugated at C10 via a carbamate; 3Am‑VBL = vinblastine (VBL) conjugate; 3′Alk‑MAL(9) = not defined here; ALK(6) = not defined here; MAL(9) = not defined here; 3′Alk = not defined here; PEG(11) = PEG(11) linker; PEG(29) = PEG(29) linker; 10Es = not defined here; 3Am = not defined here; Cbz = O=C(OCc1ccccc1)*; PEG(13) = PEG13 linker; Boc = CC(C)(C)OC(=O)*; Piv = CC(C)(C)C(=O)*; OBn = c1ccc(CO*)cc1; DOX = doxorubicin; VBL = vinblastine; PXL = paclitaxel

Columns and labels:
[1] = molecular target: T1, Human Src (Homo sapiens, UniProt P12931); experiment: Src kinase assay (PKLight ATP utilization, substrate phosphorylation as % of parent peptide); type: biochemical; conditions: for Src (Qual. Act.): DOX-Src kinase substrate conjugates
T1 construct: purchased Upstate (Charlottesville, Va.) 14-326
Protocol: Another test may involve monitoring the consumption of ATP. For example, ATP concentrations at time 0 or after 4 hour incubation may be monitored by luciferase reaction (PKLight kit obtained from Cambrex Corporation, One Meadowlands Plaza, East Rutherford, N.J. 07073), which generate a luminescence readout in the presence of ATP. Assays are initiated by mixing a kinase and a peptide in the presence of 40 μM ATP. After 4 hour of incubation at 30° C., PKLight reagent is added and mixed well, and luminescence readout measured. The rate of peptide phosphorylation is then directly related to the rate of decrease in the observed luminescence. Based on the first test, linkers of appropriate lengths and peptides with an effective amount of kinase activity which may be expected to be retained in the drug conjugate may be found.
Human Src (#14-326) and Akt (#14-276) kinases were purchased from Upstate (Charlottesville, Va.). Kinase reactions were carried out in 50 μl kinase reaction cocktail (25 mM Tris-HCl, pH 7.5, 5 μM β-glycerophosphate, 2 mM DTT, 0.1 mM Na3VO4, 10 mM MgCl2, 1 mg/ml BSA, […], 0.5 to 1.0 units enzyme). Substrates (peptide or drug-peptide conjugate in […]) were added (25, 50 and 100 μM) and the reaction was incubated for 2-5 hours at 30° C. PKLight reagent (23 μl) (Cambrex BioSciences, Rockland, Me.) was mixed with […] of the above kinase reaction and ATP utilization relative to no substrate and no ATP controls was determined by measuring luminescence with a SpectraMax Gemini EM plate reader (Molecular Devices, Sunnyvale, Calif.). Peptide substrates for Src and Akt have been described. For examples, see Lou et al. Letters in Peptide Science, 2, 289-296 (1995); Lou et al. Bioorganic & Medicinal Chemistry, 4, 677-682 (1996); Alessi et al. FEBS Letters, 399, 333-338 (1996). Substrate phosphorylation potential was determined from the linear portion of the substrate concentration dose response as a percentage of the activity observed with the parent peptide used for drug conjugation.

[2] = system: MCF-7 breast carcinoma; experiment: Cytotoxicity assay (monolayer), MCF-7; type: cell-based; conditions: MCF7, ML (monolayer); read-out: MCF7 (EC50 Ave) ML;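 note: cells treated 72 h with 6-8 compound doses versus DMSO vehicle controls, EC50 fitted by 4-parameter dose-response curves, averaged across all tests and lots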
[3] = system: HUVEC; experiment: Cytotoxicity assay (monolayer), HUVEC; type: cell-based; conditions: ML (monolayer), read-out: HUVEC (EC50 Ave) ML
[4] = system: tubulin; experiment: Fluorescence-based tubulin polymerization assay (MPA; enhancement for paclitaxel, inhibition for vinblastine); type: biochemical
From the text: Drug-linker constructs may further be screened using functional assays predictive of biological activity. […] Tubulin assembly or inhibition thereof may be monitored by fluorescence using the CytoDYNAMIX Screen™ 10 kit available from Cytoskeleton (1830 S. Acoma St., Denver, Colo.). […] Emission is monitored at 405 nm with excitation at 360 nm. […] Tubulin assembly or inhibition may also be monitored by light scattering which is approximated by the apparent absorption at 350 nm. For paclitaxel drug conjugates BSA is employed to prevent aggregation and glycerol, which is a tubulin polymerization enhancer, is omitted from the kit to increase the signal to noise ratio.
The assay kit (#BK011) was purchased from Cytoskeleton (Denver, Colo.). The assays were carried out according to the manufacturer's instructions, except that 1 mg/ml BSA (Sigma #A3059) was included in all assays. […] Parent drugs and conjugates were tested at 0.75, 1.5, 3 and 10 micromolar final concentration and results represent a comparison of conjugate and parent drug curves obtained from the linear range of the dose responses.
(±SD) represent the average of all tests carried out for all lots of a given compound.

[5] = system: Normal human foreskin fibroblasts (HFF); conditions: read-out: HFF (EC50 Ave) ML; HFF, ML (monolayer)
[6] = system: HT-29 colorectal carcinoma; experiment: Cytotoxicity assay (monolayer), HT-29; type: cell-based; conditions: HT29, ML (monolayer); read-out: HT29 (EC50 Ave) ML;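 note: monolayer cultures tested in triplicate, compound exposure for three days against DMSO vehicle controls, EC50 fitted from dose-response curves and averaged across all tests and lots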

Substance | Average src kinase activity [1] | EC50 [2] [nM] | EC50 [3] [nM] | Ave. MPA Act. [4] | EC50 [5] [nM] | EC50 [6] [nM] | Src (Qual. Act.) [1]
H-GIYWHHY-PEG(29)-3Am-VBL (H-GIYWHHY-{PEG(29)-3Am-VBL}; reading uncertain) | C (C>40) | > 100 | > 100 | C (C>80) | > 100 | – | –
Ac-YIYGSFK-PEG(13)-10Ca-PXL (N-acetyl; PEG(13) linker; paclitaxel conjugate) | C (C>40) | > 100 | > 100 | B (B=50-80) | – | > 100 | –
Pv-RLVAYEGYV-PEG(13)-10Ca-PXL (Piv-RLVAYEGYV-{PEG(13)-10Ca‑PXL}) | – | > 100 | > 100 | A (A<50) | > 100 | > 100 | –
Ac-YIYGSFK-3′Alk-MAL(9)-DOX (Ac-YIYGSFK-{3′Alk-MAL(9)-DOX}; reading uncertain; also: printed as Ac-YIYGSFK-3′Alk-MAL(9)-DOX) | – | > 100 | – | – | – | – | C (C>40)
Ac-E(Bzl)YIYGSFK(CBz)-PEG(13)-10Ca-PXL (Ac-E(OBn)YIYGSFK(Cbz)-{PEG(13)-10Ca-PXL}) | Zero | – | – | A (A<50) | – | – | –
Pv-RLVAYEGYV-PEG(11)-3Am-VBL (Piv-RLVAYEGYV-{PEG(11)-3Am‑VBL}) | – | > 100 | > 100 | B (B=50-80) | > 100 | > 100 | –
Pv-GRSRTSSFAEG-PEG(13)-10Ca-PXl (Piv-GRSRTSSFAEG-{PEG(13)-10Ca‑PXL}; also: 2 TFA salt) | – | – | – | C (C>80) | – | – | –
BOC-GIYWHHY-PEG(11)-3Am-VBL (N-BOC; PEG(11) linker; vinblastine conjugate) | A (A<20) | > 100 | – | B (B=50-80) | – | > 100 | –
CBz-YIYGSFK(CBz)-ALK(6)-10Es-PXL (Cbz-YIYGSFK(Cbz)-{ALK(6)-10Es-PXL}; reading uncertain; also: printed as CBz-YIYGSFK(CBz)-ALK(6)-10Es-PXL) | Zero | 20 to 100 | – | – | – | > 100 | –
Ac-EYIFGSFK-PEG(13)-10Ca-PXL (N-acetyl, PEG13, paclitaxel conjugate) | Zero | > 100 | > 100 | B (B=50-80) | – | > 100 | –
CBz-GIYWHHY-PEG(11)-3Am-VBL (N-CBz; PEG(11) linker; vinblastine conjugate) | A (A<20) | > 100 | – | B (B=50-80) | – | > 100 | –
Ac-EYIYGSFK(CBz)-PEG(13)-10Ca-PXL (Ac-EYIYGSFK(Cbz)-{PEG(13)-10Ca-PXL}) | B (B=20-40) | > 100 | > 100 | A (A<50) | – | > 100 | –
CBz-YIYGSFK(BOC)-PEG(11)-3Am-VBL (Cbz-YIYGSFK(Boc)-{PEG(11)-3Am-VBL}; reading uncertain; also: printed as CBz-YIYGSFK(BOC)-PEG(11)-3Am-VBL) | A (A<20) | > 100 | > 100 | C (C>80) | – | > 100 | –
Ac-EYIYGSFK-3′Alk-MAL(9)-DOX (Ac-EYIYGSFK-{3′Alk‑MAL(9)-DOX}; reading uncertain; also: printed as Ac-EYIYGSFK-3′Alk-MAL(9)-DOX) | – | > 100 | > 100 | – | > 100 | – | C (C>40)
CBz-YIYGSFK-3′Alk-MAL(9)-DOX (Cbz-YIYGSFK-{3′Alk-MAL(9)-DOX}; reading uncertain; also: printed as CBz-YIYGSFK-3′Alk-MAL(9)-DOX) | – | > 100 | > 100 | – | – | – | C (C>40)
H-YIYGSFK-3′Alk-MAL(9)-DOX (H-YIYGSFK-{3′Alk-MAL(9)-DOX}; reading uncertain) | – | > 100 | – | – | > 100 | – | C (C>40)
